Measured values from patent US12545659B2, “IRAK degraders and uses thereof” (Kymera Therapeutics, Inc., priority 2019, dated 2026).

What follows are molecules tested against T1, IRAK4 (Homo sapiens, UniProt Q9NWZ3) (assay: IRAK4 MSD Degradation in OCI-LY10). Settings: OCI-LY10 cells, 4 hrs incubation, read-out: IRAK4 degradation in OCI-LY10 at 4 hrs: DC50.
T1 construct: endogenous in cells; host or cells: OCI-LY10
T1 sequence (Q9NWZ3 1-460): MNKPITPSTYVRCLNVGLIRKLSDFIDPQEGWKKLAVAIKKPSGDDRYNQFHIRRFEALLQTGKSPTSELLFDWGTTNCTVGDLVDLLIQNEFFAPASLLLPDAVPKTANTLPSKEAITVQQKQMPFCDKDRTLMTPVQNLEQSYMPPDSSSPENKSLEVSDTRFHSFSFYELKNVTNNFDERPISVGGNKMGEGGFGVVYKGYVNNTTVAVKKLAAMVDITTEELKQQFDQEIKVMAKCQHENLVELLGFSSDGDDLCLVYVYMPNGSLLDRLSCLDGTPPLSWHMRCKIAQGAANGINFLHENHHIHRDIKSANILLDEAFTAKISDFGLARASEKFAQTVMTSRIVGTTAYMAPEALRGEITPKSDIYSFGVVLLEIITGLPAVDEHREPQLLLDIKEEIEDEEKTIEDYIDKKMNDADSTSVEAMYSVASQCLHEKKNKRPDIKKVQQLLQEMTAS
Format: cell-based
Procedure, shortened: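 OCI-LY10 cells treated with 8-dose, 1:3 dilution series (top final 1 to 10 μM) for 4 to 24 h at 37 °C, 5% CO2. Lysate IRAK4 quantified by MSD sandwich immunoassay (mouse 2H9 capture, rabbit Y279 detection, SULFO-TAG anti-rabbit); DC50 from three-parameter logistic fit.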

Row | Structure (SMILES) | DC50
1 | COc1cc2nn([C@H]3CC[C@H](CN4[C@@H]5CC[C@H]4CN(CCc4cccc6c4n(C)c(=O)n6C4CCC(=O)NC4=O)C5)CC3)cc2cc1NC(=O)c1cccc(C(F)(F)F)n1 (stereo partly shown) [I-133] | < 50 nM
2 | COc1cc2nn([C@H]3CC[C@H](CN4CCC5(CC4)CC(Nc4cccc6c4n(C)c(=O)n6C4CCC(=O)NC4=O)C5)CC3)cc2cc1NC(=O)c1cccc(C(F)(F)F)n1 (stereo partly shown) [I-162] | < 50 nM
3 | COc1cc2nn([C@H]3CC[C@H](CN(C)[C@H]4CC[C@]5(CC4)C[C@@H](Cc4cccc6c4n(C)c(=O)n6C4CCC(=O)NC4=O)C5)CC3)cc2cc1NC(=O)c1cccc(C(F)(F)F)n1 (stereo partly shown) [I-160] | 50 to 100 nM
4 | Cn1c(=O)n(C2CCC(=O)NC2=O)c2cccc(N3CCN(C[C@H]4CC[C@H](n5cc6cc(NC(=O)c7cccc(C(F)(F)F)n7)c(C(F)F)cc6n5)CC4)CC3)c21 (stereo partly shown) [I-176] | < 50 nM
5 | CN(C(=O)[C@H]1CC[C@H](n2cc3cc(NC(=O)c4cccc(C(F)(F)F)n4)c(C(C)(C)O)cc3n2)CC1)C1CCN(Cc2cccc3c2n(C)c(=O)n3C2CCC(=O)NC2=O)CC1 (stereo partly shown) [I-43] | < 50 nM
6 | COc1cc2nn([C@H]3CC[C@H](CN4CCC(c5cccc6c5n(C)c(=O)n6C5CCC(=O)NC5=O)CC4)CC3)cc2cc1NC(=O)c1cnccn1 (stereo partly shown) [I-327] | < 50 nM
7 | COc1cc2nn([C@H]3CC[C@H](CN4CC(c5ccc6c(c5)n(C)c(=O)n6C5CCC(=O)NC5=O)C4)CC3)cc2cc1NC(=O)c1cccc(C(F)(F)F)n1 (stereo partly shown) [I-260] | < 50 nM
8 | Cn1c(=O)n(C2CCC(=O)NC2=O)c2cccc(NCC3CC4(CCN(C[C@H]5CC[C@H](n6cc7cc(NC(=O)c8cccc(C(F)(F)F)n8)c(C(C)(C)O)cc7n6)CC5)CC4)C3)c21 (stereo partly shown) [I-166] | < 50 nM
9 | Cn1c(=O)n(C2CCC(=O)NC2=O)c2cccc(CN3CCOC4(CCN(Cc5ccc(-n6cc7cc(NC(=O)c8cccc(C(F)(F)F)n8)c(C(C)(C)O)cc7n6)cc5)CC4)C3)c21 (stereo not shown) [I-52] | 50 to 100 nM

Further lines, results first:

Row | DC50 | Structure (SMILES)
10 | 500 to 1000 nM | CN(CC#Cc1ccc2c(c1)n(C)c(=O)n2C1CCC(=O)NC1=O)C[C@H]1CC[C@H](n2cc3cc(NC(=O)c4cccc(C(F)(F)F)n4)c(C(F)F)cc3n2)CC1 (stereo partly shown) [I-148]
11 | 50 to 100 nM | COc1cc2nn([C@H]3CC[C@H](CN4CCC5(CC4)CC(Cc4cccc6c4n(C)c(=O)n6C4CCC(=O)NC4=O)C5)CC3)cc2cc1NC(=O)c1cccc(C(F)(F)F)n1 (stereo partly shown) [I-109]
12 | < 50 nM | Cn1c(=O)n(C2CCC(=O)NC2=O)c2cccc(CN3CCC(OC4CCN(C[C@H]5CC[C@H](n6cc7cc(NC(=O)c8cccc(C(F)(F)F)n8)c(C(C)(C)O)cc7n6)CC5)CC4)CC3)c21 (stereo partly shown) [I-66]
13 | < 50 nM | Cn1c(=O)n(C2CCC(=O)NC2=O)c2cccc(OCC3CCN(C[C@H]4CC[C@H](n5cc6cc(NC(=O)c7cccc(C(F)(F)F)n7)c(C(F)F)cc6n5)CC4)CC3)c21 (stereo partly shown) [I-115]
14 | 50 to 100 nM | Cn1c(=O)n(C2CCC(=O)NC2=O)c2ccc(N3CCN(C[C@H]4CC[C@H](n5cc6cc(NC(=O)c7cccc(C(C)(C)F)n7)c(C(F)F)cc6n5)CC4)CC3)cc21 (stereo partly shown) [I-157]
15 | < 50 nM | CN(C[C@H]1CC[C@H](n2cc3cc(NC(=O)c4cccc(C(C)(C)C)n4)c(C(C)(C)O)cc3n2)CC1)C1CCN(Cc2cccc3c2n(C)c(=O)n3C2CCC(=O)NC2=O)CC1 (stereo partly shown) [I-235]
16 | 50 to 100 nM | Cn1c(=O)n(C2CCC(=O)NC2=O)c2cccc(CCCC3CCN(C[C@H]4CC[C@H](n5cc6cc(NC(=O)c7cccc(C(F)(F)F)n7)c(N7CCOCC7)cc6n5)CC4)CC3)c21 (stereo partly shown) [I-135]
17 | 50 to 100 nM | Cn1c(=O)n(C2CCC(=O)NC2=O)c2cccc(N3CCN(C[C@H]4CC[C@H](n5cc6cc(NC(=O)c7cccc(C(F)(F)F)n7)c(OC(F)(F)F)cc6n5)CC4)CC3)c21 (stereo partly shown) [I-169]
18 | < 50 nM | Cn1c(=O)n(C2CCC(=O)NC2=O)c2cccc(CCN3C[C@H]4CC[C@@H](C3)N4CC[C@H]3CC[C@H](n4cc5cc(NC(=O)c6cccc(C(F)(F)F)n6)c(C(C)(C)O)cc5n4)CC3)c21 (stereo partly shown) [I-97]
19 | < 50 nM | Cn1c(=O)n(C2CCC(=O)NC2=O)c2cccc(CC3CCN(C[C@H]4CC[C@H](n5cc6cc(NC(=O)c7cccc(C(F)(F)F)n7)c(C(F)F)cc6n5)CC4)CC3)c21 (stereo partly shown) [I-72]

Same assay, conditions: OCI-LY10 cells, 24 hrs incubation, read-out: IRAK4 degradation in OCI-LY10 at 24 hrs: DC50

Row | Structure (SMILES) | DC50
20 | COc1cc2nn([C@H]3CC[C@H](CN4CCC5(CC4)CC(CCNc4cccc6c4C(=O)N(C4CCC(=O)NC4=O)C6=O)C5)CC3)cc2cc1NC(=O)c1nc(C(F)(F)F)cs1 (stereo partly shown) [I-208] | 100 to 500 nM
21 | CC(C)(O)c1cc2nc([C@H]3CC[C@H](CN4CCC5(CC4)CC(Nc4cccc6c4C(=O)N(C4CCC(=O)NC4=O)C6=O)C5)CC3)oc2cc1NC(=O)c1cccc(C(F)(F)F)n1 (stereo partly shown) [I-183] | 50 to 100 nM
22 | O=C1CCC(N2C(=O)c3cccc(NCCCOCC4CCN(C[C@H]5CC[C@H](n6cc7cc(NC(=O)c8cccc(C(F)(F)F)n8)c(C(F)F)cc7n6)CC5)CC4)c3C2=O)C(=O)N1 (stereo partly shown) [I-33] | 50 to 100 nM
23 | CC(C)(O)c1cc2nn([C@H]3CC[C@H](CN4CCC5(CC4)CC(Nc4cccc6c4C(=O)N(C4CCC(=O)NC4=O)C6=O)C5)CC3)cc2cc1NC(=O)c1cccc(C(F)(F)F)n1 (stereo partly shown) [I-313] | < 50 nM
24 | CC(C)(O)c1cc2nc(N3CCC(CN4CCC5(CC4)CC(Nc4cccc6c4C(=O)N(C4CCC(=O)NC4=O)C6=O)C5)CC3)oc2cc1NC(=O)c1cccc(C(F)(F)F)n1 (stereo not shown) [I-184] | 50 to 100 nM
25 | O=C1CCC(N2C(=O)c3cccc(NCCC4CC5(CCN(C[C@H]6CC[C@H](c7nc8cc(N9CCC(CO)CC9)c(NC(=O)c9cccc(C(F)(F)F)n9)cc8o7)CC6)CC5)C4)c3C2=O)C(=O)N1 (stereo partly shown) [I-314] | 100 to 500 nM
26 | COc1cc2nn([C@H]3CC[C@H](CN4CCC5(CC4)CC(CCNc4cccc6c4C(=O)N(C4CCC(=O)NC4=O)C6=O)C5)CC3)c(C)c2cc1NC(=O)c1cccc(C(F)(F)F)n1 (stereo partly shown) [I-136] | 50 to 100 nM

Results, then the molecule that gave them:

Row | DC50 | Structure (SMILES)
27 | 50 to 100 nM | COc1cc2nn([C@H]3CC[C@H](CN4CCC5(CC4)CC(CNc4cccc6c4C(=O)N([C@H]4CCC(=O)NC4=O)C6=O)C5)CC3)cc2cc1NC(=O)c1cccc(C(F)(F)F)n1 [I-131, N-[2-[4-[[2-[[[2-[(3S)-2,6-dioxo-3-piperidyl]-1,3-dioxo-isoindolin-4-yl]amino]methyl]-7-azaspiro[3.5]nonan-7-yl]methyl]cyclohexyl]-6-methoxy-indazol-5-yl]-6-(trifluoromethyl)pyridine-2-carboxamide]
28 | < 50 nM | Cc1cccc(C(=O)Nc2cc3cn([C@H]4CC[C@H](CN5CCC(COCCCNc6cccc7c6C(=O)N(C6CCC(=O)NC6=O)C7=O)CC5)CC4)nc3cc2C(C)(C)O)n1 (stereo partly shown) [I-304]
29 | 500 to 1000 nM | CC(C)(O)c1cc2nc(N3CCC(CN4CCC5(CC4)CC(CCNc4cccc6c4C(=O)N(C4CCC(=O)NC4=O)C6=O)C5)CC3)oc2cc1NC(=O)c1cccc(C(F)(F)F)n1 (stereo not shown) [I-197]
30 | 50 to 100 nM | Cn1c2cc(NC(=O)c3cccc(C(F)(F)F)n3)c(C(C)(C)O)cc2nc1[C@H]1CC[C@H](CN2CC3(CC(CCNc4cccc5c4C(=O)N(C4CCC(=O)NC4=O)C5=O)C3)C2)CC1 (stereo partly shown) [I-287]
31 | < 50 nM | COc1cc2nn([C@H]3CC[C@H](CN(C)[C@H]4CC[C@H](Nc5cccc6c5C(=O)N(C5CCC(=O)NC5=O)C6=O)CC4)CC3)cc2cc1NC(=O)c1cccc(C)n1 (stereo partly shown) [I-211]
32 | 50 to 100 nM | COc1cc2nn([C@H]3CC[C@H](CN4CCC5(CC4)CC(CNc4ccc6c(c4)C(=O)N(C4CCC(=O)NC4=O)C6=O)C5)CC3)cc2cc1NC(=O)c1cccc(C(F)(F)F)n1 (stereo partly shown) [I-222]
33 | 500 to 1000 nM | COc1cc2nn([C@H]3CC[C@H](CN4CCC5(CC4)CC(CCNc4cccc6c4C(=O)N(C4CCC(=O)NC4=O)C6=O)C5)CC3)cc2cc1NC(=O)[C@H]1CCCCO1 (stereo partly shown) [I-142]
34 | 50 to 100 nM | COc1cc2nc([C@H]3CC[C@H](CN4CC5(CC(CCNc6cccc7c6C(=O)N(C6CCC(=O)NC6=O)C7=O)C5)C4)CC3)oc2cc1NC(=O)c1cccc(C(C)(F)F)n1 (stereo partly shown) [I-198]
35 | 100 to 500 nM | COc1cc2nn([C@H]3CC[C@H](CN(C)CCCO[C@H]4C[C@@H](Nc5cccc6c5C(=O)N(C5CCC(=O)NC5=O)C6=O)C4)CC3)cc2cc1NC(=O)c1cccc(C(F)(F)F)n1 (stereo partly shown) [I-213]
36 | 50 to 100 nM | COc1cc2nn([C@H]3CC[C@H](CN(C)[C@H]4CC[C@]5(CC4)C[C@@H](CNc4cccc6c4C(=O)N(C4CCC(=O)NC4=O)C6=O)C5)CC3)cc2cc1NC(=O)c1cccc(C(F)(F)F)n1 (stereo partly shown) [I-185]
37 | 50 to 100 nM | CC1(C)OC(c2cccc(C(F)(F)F)n2)=Nc2cc3cn([C@H]4CC[C@H](CN5CCC6(CC5)CC(Nc5cccc7c5C(=O)N(C5CCC(=O)NC5=O)C7=O)C6)CC4)nc3cc21 (stereo partly shown) [I-127, 4-[[7-[[4-[8,8-Dimethyl-6-[6-(trifluoromethyl)-2-pyridyl]pyrazolo[3,4-g][3,1]benzoxazin-2-yl]cyclohexyl]methyl]-7-azaspiro[3.5]nonan-2-yl]amino]-2-(2,6-dioxo-3-piperidyl)isoindoline-1,3-dione]
38 | 50 to 100 nM | COc1cc2nn([C@H]3CC[C@H](CN4CCC5(CC4)CC(CNc4cccc6c4C(=O)N(C4CCC(=O)NC4=O)C6=O)C5)CC3)cc2cc1NC(=O)c1cccc(-c2cnn(C)c2)n1 (stereo partly shown) [I-218]
39 | < 50 nM | COc1cc2nn([C@H]3CC[C@H](CN4CCC5(CC4)CC(CCNc4cccc6c4C(=O)N(C4CCC(=O)NC4=O)C6=O)C5)CC3)cc2cc1NC(=O)c1cnn2cccnc12 (stereo partly shown) [I-139]
40 | 50 to 100 nM | COc1cc2nn([C@H]3CC[C@H](CN(C)[C@H]4CC[C@H](CNc5cccc6c5C(=O)N(C5CCC(=O)NC5=O)C6=O)CC4)CC3)cc2cc1NC(=O)c1cccc(C)n1 (stereo partly shown) [I-268]
